We go through 1 compound from patent US11766409B2, “Core-shell polymer nanoparticle” (THE UNIVERSITY OF QUEENSLAND, priority 2018, dated 2023).

This data set relates to tumor-bearing mice. As to the kind of experiment: In vivo anti-tumor therapeutic effect in tumor-bearing mice. Particulars: day 25 compared to day 0 post-injection; intravenous, every 72 hours, 5 injections. How it is done: In vivo mice experiments were conducted to evaluate the anti-tumor therapeutic effects of PTX-loaded high (55K/SH-PTX; 39.6% drug loading) and low-drug loading formulations (55K/SH-PTX; 3.5% drug loading) in tumor-bearing mice. Four formulations (PBS, Free PTX, High DL NP, and Low DL NP_where DL is drug loading and NP is core-shell polymer nanoparticle) were injected intravenously every 72 hours for 5 injections in total. The body weight and tumor volume of the mice were monitored every two days. […] The weight increase was higher than the Low DL NP group (4.4% increase) and Free PTX group (2.9% increase).

Regarding `CC(=O)O[C@H]1C(=O)[C@@]2(C)[C@H]([C@H](OC(=O)c3ccccc3)[C@]3(O)C[C@H](OC(=O)[C@H](O)[C@@H](NC(=O)c4ccccc4)c4ccccc4)C(C)=C1C3(C)C)[C@]1(OC(C)=O)CO[C@@H]1C[C@@H]2O` [Free PTX, paclitaxel], the body weight increase came out at 2.9%.
